Results: patent US11434227B2, “Broad spectrum antibacterial activity of novel bisbenzimidazoles targeting topoisomerase IA and the synergistic composition of bisbenzimidazole with efflux pump inhibitors against pathogenic bacteria” (Jawaharlal Nehru University (JNU), priority 2016, dated 2022)
≈ marks a conversion by molar mass, not a printed value.

Tests used:
Escherichia coli 392 = experiment: Susceptibility (MIC50/MIC90), broth microdilution
Method: (§1) MICs were determined by the broth microdilution method according to CLSI methods (Clinical and Laboratory Standards Institute, 2005). Inoculants were incubated at 37° C. on cation adjusted Mueller Hinton (MH) Broth for 18 to 24 h. Compound were dissolved in media to 10 doubling dilutions from 128 to 0.125 μg/mL. All the bacterial strains were grown in 96 well plate with low evaporation lid (Falcon, Becton Dickinson) in presence of derivatives of benzimidazoles at 0.125, 0.25, 0.5, 1, 2, 4, 8, 16, 32, 64, 128, 256 μg/mL concentrations. […] Plates were read by Tecan Micro-plate Reader at 600 nm.

E. coli K12 mutant ΔompC = experiment: Susceptibility of E. coli K12 and mutants (MIC90); conditions: Escherichia coli
Method: as §1

K. planticola (1164) = experiment: HN12b in combination with efflux pump inhibitors (CB method, FICI)
Method: (§2) 96-well microtiter plates containing MIC25 concentrations of the Efflux pump inhibitor (CCCP, PAβN) and HN12b antimicrobial drugs alone and in CB combination were used. The MICs of the individual drugs HN12b, PAβN and CCCP (0.25 to 128 μg/ml) and of the combinations were determined using the broth microdilution technique as recommended by the CLSI. Briefly, the broth microdilution plates were inoculated with each test organism to yield the appropriate density (10^5 CFU/ml) in 100 μl Mueller-Hinton broth (MHB) and incubated for 24 h at 37° C. in ambient air. One well with no antibiotic was used as a positive growth control on each plate. Plates were read for visual turbidity, and results were recorded after 24 h of incubation at 37° C. in ambient air by using a magnifying mirror reader, as turbidity in wells indicated growth of the microorganism. The MIC was determined as the well in the microtiter plate with the lowest drug concentration at which there was no visible growth. […] MICAB was defined as the MIC of drug A in the presence of drug B; MICBA was defined as the MIC of drug B in the presence of drug A.
(§3) The fractional inhibitory concentration index (FICI) was calculated for each antibiotic in each combination by using the following formula: FICA+FICB=FICI, where FICA equals the MIC of drug A in combination divided by the MIC of drug A alone and FICB equals the MIC of drug B in combination divided by the MIC of drug B alone. The FICIs were interpreted as follows: FICI of ≤0.5 will correspond to synergy; FICI of >0.5 to ≤1 will correspond to additivity; FICI of >1 to ≤4 will correspond to no interaction (indifference), and FICI of >4 will correspond antagonism.

[1] = test system: Pseudomonas aeruginosa (Ps162); experiment: Susceptibility (MIC50/MIC90), broth microdilution
Method: as §1

E. coli ATCC 25922 = experiment: Mouse systemic infection (septicemia) model; assay type: in vivo, Balb/c mice
Method: Female Balb/c mice weighing 20-25 g of 6-8 weeks old were injected with E. coli ATCC 25922 (0.5×10^8 CFU in 0.1 mL saline) intraperitoneally. […] Each treatment or control group had 10 mice. Mortality was recorded daily for 7 days post infection.

Enterococcus sp.(1150) = experiment: Susceptibility (MIC50/MIC90), broth microdilution
Method: as §1

[2] = test system: Escherichia coli (ATCC 25922); experiment: Susceptibility (MIC, PAE, MBC), broth microdilution; conditions: Escherichia coli
Method: as §1

E. coli 401^R = experiment: as above; conditions: Escherichia coli
Method: as §1

Staphylococcus sp. (976) = experiment: Susceptibility (MIC50/MIC90), broth microdilution
Method: as §1

E. coli KK45 = experiment: HN12b in combination with efflux pump inhibitors (CB method, FICI)
Method: as §2, §3

Enterococcus sp. (2105) [3] = experiment: Susceptibility (MIC50/MIC90), broth microdilution
Method: as §1

[4] = test system: Acinetobacter baumannii (MTCC1920); experiment: Susceptibility (MIC50/MIC90), broth microdilution
Method: as §1

E. coli ATCC25922 = experiment: HN12b in combination with efflux pump inhibitors (CB method, FICI); conditions: for FICI / Interpretation: E. coli ATCC25922
Method: as §2, §3

[5] = test system: Salmonella typhimurium (St412); experiment: Susceptibility (MIC50/MIC90), broth microdilution; conditions: Salmonella enterica
Method: as §1

E. coli K12 mutant ΔompF = experiment: Susceptibility of E. coli K12 and mutants (MIC90); conditions: Escherichia coli
Method: as §1

[6] = test system: E. coli K12 mutant ΔTopIA; experiment: Susceptibility of E. coli K12 and mutants (MIC90); conditions: Escherichia coli
Method: as §1

Enterococcus sp. (1367) = experiment: Susceptibility (MIC50/MIC90), broth microdilution
Method: as §1

Enterococcus sp. (1365) = experiment: Susceptibility (MIC50/MIC90), broth microdilution
Method: as §1

[7] = test system: E. coli K12 mutant ΔTopIB; experiment: Susceptibility of E. coli K12 and mutants (MIC90); conditions: Escherichia coli
Method: as §1

[8] = test system: Acinetobacter baumannii (AB312); experiment: Susceptibility (MIC50/MIC90), broth microdilution
Method: as §1

Enterococcus sp. (1121) [9] = experiment: HN12b in combination with efflux pump inhibitors (CB method, FICI)
Method: as §2, §3

Enterococcus sp. (2105) [10] = experiment: as above
Method: as §2, §3

E. coli 360^R = experiment: Susceptibility (MIC, PAE, MBC), broth microdilution; conditions: Escherichia coli
Method: as §1

E. coli K12 mutant ΔemrA = experiment: Susceptibility of E. coli K12 and mutants (MIC90); conditions: Escherichia coli
Method: as §1

Enterococcus sp. (1121) [11] = experiment: Susceptibility (MIC50/MIC90), broth microdilution
Method: as §1

E. coli 81^R = experiment: Susceptibility (MIC, PAE, MBC), broth microdilution; conditions: Escherichia coli
Method: as §1

[12] = K. planticola (1164), HN12b + CCCP
[13] = ATCC25922, Escherichia coli (ATCC 25922), Table 2
[14] = Enterococcus sp. (1121), HN12b + CCCP
[15] = Enterococcus sp. (2105), HN12b + CCCP

With `CCCN1CCN(c2nc3ccc(-c4nc5ccccc5[nH]4)cc3[nH]2)CC1` [HN12b, 2′-(4-propylpiperazine-1-yl)-1H, 3′H-2,5′-bibenzimidazole] as the compound, how does the MIC50 (Escherichia coli 392) read?
Its MIC50 is 17.9 µg/mL (≈ 49.7 µM).

What about the MIC90 (Escherichia coli 392) of the same compound?
The MIC90 was 64.5 µg/mL (≈ 179 µM).

And the MIC90 (E. coli K12 mutant ΔompC)?
Its MIC90 is 3.8 µg/mL (≈ 10.5 µM).

And the FICI (K. planticola (1164); [12])?
Its FICI is 0.5.

What about the Interpretation (K. planticola (1164); [12]) of the same compound?
Its Interpretation is “Synergy (FICI of ≤0.5 will correspond to synergy)”.

What about the FICI (K. planticola (1164); K. planticola (1164), HN12b + PAβN) of the same compound?
Its FICI is 1.

And the MIC90 (K. planticola (1164); Klebsiella planticola)?
Its MIC90 is 128 µg/mL.

What about the MIC50 [1] of the same compound?
Its MIC50 is 2.94 µg/mL (≈ 8.16 µM).

What about the MIC90 [1] of the same compound?
Its MIC90 is 5.94 µg/mL (≈ 16.5 µM).

What about the ED50 (E. coli ATCC 25922; Escherichia coli, iv, 168 h, Septicemia, ATCC25922, single i.v. bolus, survival over 7 days) of the same compound?
The ED50 was 5 mg/kg.

What about the in vivo efficacy (E. coli ATCC 25922; Septicaemia model, E. coli ATCC 25922) of the same compound?
Its in vivo efficacy is “good in vivo efficacy”.

And the MIC50 (Enterococcus sp.(1150))?
Its MIC50 is 0.25 µg/mL (≈ 0.694 µM).

What about the MIC90 (Enterococcus sp.(1150)) of the same compound?
The MIC90 was 13.2 µg/mL (≈ 36.8 µM).

And the MBC ([2]; ATCC25922)?
The MBC was 4 µg/mL (≈ 11.1 µM).

What about the MIC50 ([2]; ATCC25922, ATCC 25922) of the same compound?
Its MIC50 is 0.2 µg/mL (≈ 0.555 µM).

What about the MIC90 ([2]; ATCC25922, ATCC 25922) of the same compound?
Its MIC90 is 3.3 µg/mL (≈ 9.15 µM).

And the MIC50 ([2]; ATCC25922, ATCC25922, Table 7)?
Its MIC50 is 0.2 ± 0.024 µg/mL (≈ 0.555 µM).

What about the MIC50 [2, 13] of the same compound?
The MIC50 was 8 µg/mL (≈ 22.2 µM).

What about the MIC90 [2, 13] of the same compound?
Its MIC90 is 26.6 µg/mL (≈ 73.8 µM).

What about the MBC (E. coli 401^R) of the same compound?
The MBC was 2 µg/mL (≈ 5.55 µM).

What about the MIC50 (E. coli 401^R) of the same compound?
Its MIC50 is 1 µg/mL (≈ 2.77 µM).

And the MIC90 (E. coli 401^R)?
The MIC90 was 1.7 µg/mL (≈ 4.72 µM).

And the MIC50 (Staphylococcus sp. (976))?
Its MIC50 is 0.31 µg/mL (≈ 0.86 µM).

What about the MIC90 (Staphylococcus sp. (976)) of the same compound?
Its MIC90 is 15.3 µg/mL (≈ 42.5 µM).

What about the FICI (E. coli KK45; E. coli KK45, HN12b + CCCP) of the same compound?
The FICI was 0.3.

And the Interpretation (E. coli KK45; E. coli KK45, HN12b + CCCP)?
Its Interpretation is “Synergy (FICI of ≤0.5 will correspond to synergy)”.

And the FICI (E. coli KK45; E. coli KK45, HN12b + PAβN)?
The FICI was 0.7.

What about the MIC90 (E. coli KK45; Escherichia coli, KK45) of the same compound?
The MIC90 was 16 µg/mL.

What about the MIC50 (Enterococcus sp. (2105) [3]) of the same compound?
The MIC50 was 28.4 µg/mL (≈ 78.8 µM).

What about the MIC90 (Enterococcus sp. (2105) [3]) of the same compound?
The MIC90 was 128 µg/mL (≈ 355 µM).

And the MIC50 [4]?
The MIC50 was > 128 µg/mL.

And the MIC90 [4]?
Its MIC90 is 128 µg/mL (≈ 355 µM).

And the FICI (E. coli ATCC25922; HN12b + CCCP)?
Its FICI is 0.3.

What about the Interpretation (E. coli ATCC25922; HN12b + CCCP) of the same compound?
The Interpretation was “Synergy (FICI of ≤0.5 will correspond to synergy)”.

And the FICI (E. coli ATCC25922; HN12b + PAβN)?
The FICI was 0.1.

What about the Interpretation (E. coli ATCC25922; HN12b + PAβN) of the same compound?
The Interpretation was “Synergy (FICI of ≤0.5 will correspond to synergy)”.

And the MIC90 (E. coli ATCC25922; Escherichia coli, ATCC25922)?
The MIC90 was 14 µg/mL.

What about the MIC50 [5] of the same compound?
The MIC50 was < 0.25 µg/mL.

What about the MIC90 [5] of the same compound?
The MIC90 was < 0.25 µg/mL.

And the MIC90 (E. coli K12 mutant ΔompF)?
The MIC90 was 5.4 µg/mL (≈ 15 µM).

What about the MIC90 [6] of the same compound?
Its MIC90 is 2.8 µg/mL (≈ 7.77 µM).

What about the MIC50 (Enterococcus sp. (1367)) of the same compound?
Its MIC50 is < 0.25 µg/mL.

What about the MIC90 (Enterococcus sp. (1367)) of the same compound?
Its MIC90 is 11.4 µg/mL (≈ 31.5 µM).

And the MIC50 (Enterococcus sp. (1365))?
Its MIC50 is 0.25 µg/mL (≈ 0.694 µM).

And the MIC90 (Enterococcus sp. (1365))?
The MIC90 was 11.2 µg/mL (≈ 31.2 µM).

What about the MIC90 [7] of the same compound?
The MIC90 was 3.8 µg/mL (≈ 10.5 µM).

What about the MIC50 [8] of the same compound?
The MIC50 was 3.8 µg/mL (≈ 10.5 µM).

What about the MIC90 [8] of the same compound?
Its MIC90 is 3.8 µg/mL (≈ 10.5 µM).

And the MIC90 (Enterococcus sp. (1121) [9]; Enterococcus)?
Its MIC90 is 8 µg/mL.

What about the FICI (Enterococcus sp. (1121) [9]; [14]) of the same compound?
The FICI was 0.5.

And the Interpretation (Enterococcus sp. (1121) [9]; [14])?
The Interpretation was “Synergy (FICI of ≤0.5 will correspond to synergy)”.

What about the FICI (Enterococcus sp. (1121) [9]; Enterococcus sp. (1121), HN12b + PAβN) of the same compound?
The FICI was 1.

What about the MIC90 (Enterococcus sp. (2105) [10]; Enterococcus) of the same compound?
The MIC90 was 128 µg/mL.

And the FICI (Enterococcus sp. (2105) [10]; [15])?
The FICI was 0.5.

What about the Interpretation (Enterococcus sp. (2105) [10]; [15]) of the same compound?
Its Interpretation is “Synergy (FICI of ≤0.5 will correspond to synergy)”.

What about the FICI (Enterococcus sp. (2105) [10]; Enterococcus sp. (2105), HN12b + PAβN) of the same compound?
Its FICI is 1.

What about the MBC (E. coli 360^R) of the same compound?
Its MBC is 2 µg/mL (≈ 5.55 µM).

What about the MIC50 (E. coli 360^R) of the same compound?
Its MIC50 is 1 µg/mL (≈ 2.77 µM).

And the MIC90 (E. coli 360^R)?
Its MIC90 is 1.6 µg/mL (≈ 4.44 µM).

And the MIC90 (E. coli K12 mutant ΔemrA)?
Its MIC90 is 5.8 µg/mL (≈ 16.1 µM).

And the MIC50 (Enterococcus sp. (1121) [11])?
The MIC50 was < 0.25 µg/mL.

What about the MIC90 (Enterococcus sp. (1121) [11]) of the same compound?
Its MIC90 is 8 µg/mL (≈ 22.2 µM).

What about the MBC (E. coli 81^R) of the same compound?
Its MBC is 2 µg/mL (≈ 5.55 µM).

And the MIC50 (E. coli 81^R)?
The MIC50 was 1 µg/mL (≈ 2.77 µM).

And the MIC90 (E. coli 81^R)?
Its MIC90 is 1.6 µg/mL (≈ 4.44 µM).
